According to US20060247320A1, “Compounds for inhibiting KSP kinesin activity” (priority 2005, published 2006):

Each compound was assayed against T1, KSP motor domain (Homo sapiens, UniProt P52732) (assay: biochemical). Conditions: KSP inhibitory activity, end-point assay; class symbols (Table 1).
T1 sequence (P52732 18-359 limits assumed): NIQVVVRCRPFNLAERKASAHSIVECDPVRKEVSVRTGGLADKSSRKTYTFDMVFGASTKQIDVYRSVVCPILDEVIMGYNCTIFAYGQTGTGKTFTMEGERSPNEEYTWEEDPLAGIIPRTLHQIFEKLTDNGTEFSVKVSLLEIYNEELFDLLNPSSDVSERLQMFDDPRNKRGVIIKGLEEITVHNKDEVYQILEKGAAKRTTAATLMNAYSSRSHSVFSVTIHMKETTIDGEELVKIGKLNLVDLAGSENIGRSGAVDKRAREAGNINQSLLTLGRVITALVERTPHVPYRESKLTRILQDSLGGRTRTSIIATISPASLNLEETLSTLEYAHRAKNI

With CC(C)(C)C1CCc2nc3sc(C(=N)N)cc3cc2C1 (stereo not shown) [Example 69, 6-tert-butyl-5,6,7,8-tetrahydrothieno[2,3-b]quinoline-2-carboxamidine] the “IC50 (nM)” value was “B/C”.

Same assay, conditions: KSP inhibitory activity, end-point assay; class symbols (Table 1); read-out: IC50

CC(C)(C)[C@@H]1CCc2nc3sc(C(=O)N[C@H](CN)c4cccc(NC(=O)c5c[nH]cn5)c4)cc3cc2C1 [Example 248] and Cn1ccnc1C(=O)Nc1cccc([C@@H](CN)NC(=O)c2cc3cc4c(nc3s2)CC[C@@H](C(C)(C)C)C4)c1 [Example 250] cannot be ordered by IC50: under 100 nM for the first, under 100 nM for the second.

First: CNCc1cc2cc3c(nc2s1)CCC(C(C)(C)C)C3 (stereo not shown) [Example 151]
Second: CC(C)(C)C1CCc2nc3sc(C#N)cc3cc2C1 (racemic) [Example 58, 6-tert-butyl-5,6,7,8-tetrahydrothieno[2,3-b]quinoline-2-carbonitrile]
The IC50 of the first is higher: 1000 to 10000 nM for the first, 100 to 1000 nM for the second.

First: CC(C)(C)C1CCc2nc3sc(C(=O)Nc4ccc(O)cc4N)cc3cc2C1 (stereo not shown) [Example 226G]
Second: CC(C)(C)C1CCc2nc3sc(C(=O)NO)cc3cc2C1 (stereo not shown) [Example 104, 6-tert-Butyl-5,6,7,8-tetrahydrothieno[2,3-b]quinoline-2-carboxylic acid hydroxyamide]
The IC50 of the first is higher: 100 to 1000 nM for the first, under 100 nM for the second. The second is the more potent here.

CC(C)(C)C1CCc2nc3sc(C(N)=O)cc3cc2C1 (stereo not shown) [Example 64, 6-tert-butyl-5,6,7,8-tetrahydrothieno[2,3-b]quinoline-2-carboxylic acid amide] and CC(C)(C)C1CCCc2nc3sc(C(N)=O)cc3cc2C1 (stereo not shown) [Example 65] cannot be ordered by IC50: under 100 nM for the first, under 100 nM for the second.

Compared with COC(=O)[C@H]1C[C@@H](O)CN1C(=O)c1cc2cc3c(nc2s1)CCC(C(C)(C)C)C3 (stereo partly shown) [Example 92], COC(=O)[C@@H]1C[C@@H](O)CN1C(=O)c1cc2cc3c(nc2s1)CCC(C(C)(C)C)C3 (stereo partly shown) [Example 84] is lower in IC50: over 10000 nM for the first, 1000 to 10000 nM for the second.

CC(C)(C)[C@@H]1CCc2nc3sc(C(=O)N[C@H](CN)c4ccc(NC(=O)c5ccco5)cc4)cc3cc2C1 [Example 273, 6(R)-tert-Butyl-5,6,7,8-tetrahydro-thieno[2,3-b]quinoline-2-carboxylic acid (2-amino-1(S)-{4-[(furan-2-carbonyl)-amino]-phenyl}-ethyl)-amide] and CC(C)(C)[C@@H]1CCc2nc3sc(C(=O)N[C@H](CN)c4ccc(NC(=O)c5cscn5)cc4)cc3cc2C1 [Example 270] cannot be ordered by IC50: under 100 nM for the first, under 100 nM for the second.

First: CC(C)(C)C1CCc2nc3sc(C(=O)N[C@H](CO)Cc4ccc(O)cc4)cc3cc2C1 (stereo partly drawn) [Example 161, 6-tert-Butyl-5,6,7,8-tetrahydrothieno[2,3-b]quinoline-2-carboxylic acid [2-hydroxy-(1S)-1-(4-hydroxybenzyl)ethyl]amide]
Second: CC(C)(C)C1CCc2nc3sc(C(=O)N[C@@H](Cc4ccc(O)cc4)C(=N)N)cc3cc2C1 (stereo partly shown) [Example 174]
The IC50 of the first is higher: over 10000 nM for the first, 1000 to 10000 nM for the second. The second is the more potent here.

CCCC1CCCc2cc3c(N)c(C#N)sc3nc21 (stereo not shown) [Example 52] and CC1CCc2nc3sc(C#N)c(N)c3cc2C1 (stereo not shown) [Example 13] cannot be ordered by IC50: over 10000 nM for the first, over 10000 nM for the second.

First: CC(C)(C)C1CCc2nc3sc(C(=O)N[C@H](C#N)Cc4ccc(O)cc4)cc3cc2C1 (stereo partly shown) [Example 164]
Second: CC(C)(C)C1CCc2nc3sc(C(=O)NC(CN)c4ccc(C(N)=O)cc4)cc3cc2C1 (stereo not shown) [Example 224, 6-tert-butyl-5,6,7,8-tetrahydrothieno[2,3-b]quinoline-2-carboxylic acid [2-amino-1-(4-carbamoylphenyl)ethyl]amide]
The IC50 of the first is higher: 100 to 1000 nM for the first, under 100 nM for the second.

CC(C)(C)C1CCc2nc3sc(C(=O)N[C@H](CN)c4cccc(N)c4)cc3cc2C1 (stereo partly shown) [Example 217] and Cc1cccc([C@@H](CN)NC(=O)c2cc3cc4c(nc3s2)CCC(C(C)(C)C)C4)c1 (stereo partly shown) [Example 220] cannot be ordered by IC50: under 100 nM for the first, under 100 nM for the second.

Compared with CC(C)(C)C1CCc2nc3sc(C(=O)NCc4ccccc4)cc3cc2C1 (stereo not shown) [Example 78], CC(O)CNC(=O)c1cc2cc3c(nc2s1)CCC(C(C)(C)C)C3 (stereo not shown) [Example 103] is lower in IC50: over 10000 nM for the first, 1000 to 10000 nM for the second. The second is the more potent here.

Compared with Cn1cncc1C(=O)Nc1cccc([C@@H](CN)NC(=O)c2cc3cc4c(nc3s2)CC[C@@H](C(C)(C)C)C4)c1 [Example 251], C[C@H]1CN(C(=O)Nc2cccc([C@@H](CN)NC(=O)c3cc4cc5c(nc4s3)CC[C@@H](C(C)(C)C)C5)c2)CCN1 [Example 280] is higher in IC50: under 100 nM for the first, 100 to 1000 nM for the second. The first is the more potent here.

Compared with CC(C)(C)[C@@H]1CCc2nc3sc(C(=O)N[C@H](CN)c4cccc(NC(=O)c5cnc6ccccc6n5)c4)cc3cc2C1 [Example 228], CC(C)(C)C1CCc2nc3sc(C(=O)N[C@H](CN)c4cccc(-c5ccncc5)c4)cc3cc2C1 (stereo partly drawn) [Example 212, 6-tert-butyl-5,6,7,8-tetrahydro-thieno[2,3-b]quinoline-2-carboxylic acid [(1S)-2-amino-1-(3-pyridin-4-yl-phenyl)-ethyl]-amide] is higher in IC50: under 100 nM for the first, 100 to 1000 nM for the second. The first is the more potent here.

First: C[C@@H]1CN[C@@H](C)CN1C(=O)Nc1cccc([C@@H](CN)NC(=O)c2cc3cc4c(nc3s2)CC[C@@H](C(C)(C)C)C4)c1 [Example 278]
Second: C[C@H]1CNCCN1C(=O)Nc1cccc([C@@H](CN)NC(=O)c2cc3cc4c(nc3s2)CC[C@@H](C(C)(C)C)C4)c1 [Example 276]
The IC50 of the first is higher: 100 to 1000 nM for the first, under 100 nM for the second.

First: CC(C)(C)C1CCCc2nc3sc(C#N)c(N)c3cc2C1 (stereo not shown) [Example 40]
Second: CC(C)(C)CC1CCc2nc3sc(C#N)c(N)c3cc2C1 (stereo not shown) [Example 25]
The IC50 of the first is lower: under 100 nM for the first, 100 to 1000 nM for the second.

Compared with CC(C)(C)C1CCc2nc3sc(C(N)=S)cc3cc2C1 (stereo not shown) [Example 70, 6-tert-butyl-5,6,7,8-tetrahydrothieno[2,3-b]quinoline-2-carbothioic acid amide], CC(C)(C)C1CCc2nc3sc(C(=O)O)cc3cc2C1 (stereo not shown) [Example 73, 6-tert-Butyl-5,6,7,8-tetrahydrothieno[2,3-b]quinoline-2-carboxylic acid] is higher in IC50: 100 to 1000 nM for the first, over 10000 nM for the second.

First: CC(C)(C)C1CCc2nc3sc(-c4ncc[nH]4)cc3cc2C1 (stereo not shown) [Example 181, 6-tert-Butyl-2-(1H-imidazol-2-yl)-5,6,7,8-tetrahydrothieno[2,3-b]quinoline]
Second: CC(C)(C)C1CCc2nc3sc(-c4ncc(CO)o4)cc3cc2C1 (stereo not shown) [Example 185, [2-(6-tert-Butyl-5,6,7,8-tetrahydrothieno[2,3-b]quinolin-2-yl)oxazol-5-yl]methanol]
The IC50 of the first is lower: 100 to 1000 nM for the first, 1000 to 10000 nM for the second.

Compared with N#Cc1sc2nc3c(cc2c1N)CN(CCC(F)(F)F)CC3 [Example 57], CC1(C2CCc3nc4sc(C#N)c(N)c4cc3C2)CC1 (stereo not shown) [Example 43] is lower in IC50: over 10000 nM for the first, 100 to 1000 nM for the second.

First: CC(C)(C)C1CCc2nc3sc(C(=O)N[C@H](CN)c4ccccc4)nc3cc2C1 (stereo partly drawn) [Example 225, 6-tert-butyl-5,6,7,8-tetrahydro-thiazolo[5,4-b]quinoline-2-carboxylic acid [2(S)-amino-1-phenyl-ethyl]-amide]
Second: CC(=O)Nc1nc2cc3c(nc2s1)CCC(C(C)(C)C)C3 (stereo not shown) [Example 135, N-(7-tert-Butyl-5,6,7,8-tetrahydrothiazolo[5,4-b]quinolin-2-yl)acetamide]
The IC50 of the first is lower: under 100 nM for the first, 100 to 1000 nM for the second. The first is the more potent here.

First: CC(C)(C)C1CCc2nc3sc(S(C)(=O)=O)c(N)c3cc2C1 (stereo not shown) [Example 120, 6-tert-Butyl-2-methanesulfonyl-5,6,7,8-tetrahydrothieno[2,3-b]quinolin-3-ylamine]
Second: CC(C)CC(C)(C)C1CCc2nc3sc(C#N)c(N)c3cc2C1 (stereo not shown) [Example 8]
The IC50 of the first is lower: 100 to 1000 nM for the first, over 10000 nM for the second.

First: CC(C)[C@H](NC(=O)c1cc2cc3c(nc2s1)CCC(C(C)(C)C)C3)C(=N)N (stereo partly shown) [Example 171]
Second: C[C@H](NC(=O)c1cc2cc3c(nc2s1)CCC(C(C)(C)C)C3)C(=N)N (stereo partly shown) [Example 169]
The IC50 of the first is higher: 1000 to 10000 nM for the first, under 100 nM for the second.

First: CC(C)(C)C1CCc2nc3sc(C(=O)NCC4CCNCC4)cc3cc2C1 (stereo not shown) [Example 195, 6-(1,1-Dimethylethyl)-5,6,7,8-Tetrahydro-N-(4-Piperidinylmethyl)thieno[2,3-b]quinoline-2-Carboxamide]
Second: CC(C)(C)C1CCc2nc3sc(C(=O)NCCCO)cc3cc2C1 (stereo not shown) [Example 102]
The IC50 of the first is higher: 1000 to 10000 nM for the first, 100 to 1000 nM for the second.

First: CN1CCN(C(=O)c2cc3cc4c(nc3s2)CCC(C(C)(C)C)C4)CC1 (stereo not shown) [Example 97]
Second: CC(C)(C)C1CCc2nc3sc(C(=O)NN4CCOCC4)cc3cc2C1 (stereo not shown) [Example 200, 6-(1,1-Dimethylethyl)-5,6,7,8-Tetrahydro-N-(4-Morpholinyl)thieno[2,3-b]quinoline-2-Carboxamide]
The IC50 of the first is higher: over 10000 nM for the first, 1000 to 10000 nM for the second. The second is the more potent here.

CC(C)C1CCc2nc3sc(C#N)c(N)c3cc2C1 (stereo not shown) [Example 1, 3-amino-6-isopropyl-5,6,7,8-tetrahydrothieno[2,3-b]quinoline-2-carbonitrile] and CCC(C)C1CCc2nc3sc(C#N)c(N)c3cc2C1 (stereo not shown) [Example 21] fall in the same range of IC50: 1000 to 10000 nM for the first, 1000 to 10000 nM for the second.

CC(C)(C)C1CCc2nc3sc(C(=O)N4CCCC[C@@H]4C(=O)O)cc3cc2C1 (stereo partly shown) [Example 91] and CC(C)(C)C1CCc2nc3sc(C(=O)N4CCC[C@@H]4C(=O)O)cc3cc2C1 (stereo partly shown) [Example 88] cannot be ordered by IC50: over 10000 nM for the first, over 10000 nM for the second.

First: CC(C)(C)C1CCc2nc3sc(NC(N)=O)nc3cc2C1 (stereo not shown) [Example 132, (7-tert-Butyl-5,6,7,8-tetrahydrothiazolo[5,4-b]quinolin-2-yl)-urea]
Second: CSc1nc2cc3c(nc2s1)CCC(C(C)(C)C)C3 (stereo not shown) [Example 129, 7-tert-butyl-2-methylsulfanyl-5,6,7,8-tetrahydrothiazolo[5,4-b]quinoline]
The IC50 of the first is lower: 1000 to 10000 nM for the first, over 10000 nM for the second. The first is the more potent here.

CC(C)(C)C1CCc2nc3sc(C(=O)NC(CO)CO)cc3cc2C1 (stereo not shown) [Example 96] and CC(CO)NC(=O)c1cc2cc3c(nc2s1)CCC(C(C)(C)C)C3 (stereo not shown) [Example 83] fall in the same range of IC50: 100 to 1000 nM for the first, 100 to 1000 nM for the second.

First: CC(C)(C)C1CCc2nc3sc(C(=O)NC(CO)(CO)CO)cc3cc2C1 (stereo not shown) [Example 98]
Second: C[C@@H](CN)NC(=O)c1cc2cc3c(nc2s1)CCC(C(C)(C)C)C3 (stereo partly shown) [Example 176]
The IC50 of the first is higher: 1000 to 10000 nM for the first, under 100 nM for the second. The second is the more potent here.

Same assay, conditions: exact IC50 values, end-point assay (Table 2); read-out: IC50

CC(C)(C)[C@@H]1CCc2nc3sc(C(=O)N[C@H](CN)c4ccc(NC(=O)c5ccco5)cc4)cc3cc2C1 [Example 273, 6(R)-tert-Butyl-5,6,7,8-tetrahydro-thieno[2,3-b]quinoline-2-carboxylic acid (2-amino-1(S)-{4-[(furan-2-carbonyl)-amino]-phenyl}-ethyl)-amide] and Cn1ccnc1C(=O)Nc1cccc([C@@H](CN)NC(=O)c2cc3cc4c(nc3s2)CC[C@@H](C(C)(C)C)C4)c1 [Example 250] are within 1.5-fold of each other in IC50: 17 nM for the first, 19 nM for the second.

CC(C)(C)C1CCCc2nc3sc(C#N)c(N)c3cc2C1 (stereo not shown) [Example 40] and CC(C)(C)C1CCCc2nc3sc(C(N)=O)cc3cc2C1 (stereo not shown) [Example 65] are within 1.5-fold of each other in IC50: 60 nM for the first, 62 nM for the second.
